Data on two compounds can be found in article PMC6450568 (Bioorganic & medicinal chemistry letters, 2019).

A word on the IC50: it is the concentration at which inhibition is half-maximal. As usually defined, the Kd is the constant that tells how readily two partners part at equilibrium. A low value points to tighter binding.

Where two headings read alike, the source gives them in different places. Some results are limits rather than exact numbers.

In experiment [1] the target is T1, native Rho (rhodanese) reporter enzyme (Bos taurus, UniProt P00586).
T1 sequence (P00586 2-297 limits assumed): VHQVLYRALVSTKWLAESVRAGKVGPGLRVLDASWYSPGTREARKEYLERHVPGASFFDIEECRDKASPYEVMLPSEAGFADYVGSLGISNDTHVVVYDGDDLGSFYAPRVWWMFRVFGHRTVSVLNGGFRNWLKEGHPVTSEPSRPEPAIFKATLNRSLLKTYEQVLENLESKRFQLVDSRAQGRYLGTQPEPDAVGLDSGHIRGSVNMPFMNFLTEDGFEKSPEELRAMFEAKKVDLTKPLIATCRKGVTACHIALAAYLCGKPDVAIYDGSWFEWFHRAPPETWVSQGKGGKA
In words: Native Rho enzymatic reporter counter-screen. Format: biochemical.

For experiment [2], the target named is T2, native MDH (malate dehydrogenase) reporter enzyme (Sus scrofa, UniProt P00346).
T2 sequence (P00346 25-338): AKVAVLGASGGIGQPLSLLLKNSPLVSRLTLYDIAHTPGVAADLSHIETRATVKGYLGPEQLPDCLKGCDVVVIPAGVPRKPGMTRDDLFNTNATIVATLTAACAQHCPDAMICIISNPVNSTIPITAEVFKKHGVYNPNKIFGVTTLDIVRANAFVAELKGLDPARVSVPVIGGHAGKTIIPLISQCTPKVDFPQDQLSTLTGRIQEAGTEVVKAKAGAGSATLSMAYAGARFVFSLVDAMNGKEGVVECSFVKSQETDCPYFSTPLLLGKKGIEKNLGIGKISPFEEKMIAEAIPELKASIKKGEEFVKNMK
In words: Native MDH enzymatic reporter counter-screen. The experiment is classed as biochemical.

Experiment [3] concerns the target T3, E. coli GroEL/ES chaperonin system (Escherichia coli, UniProt P0A6F5). Description: biochemical.
For the next experiment, the target named is E. coli GroEL (Escherichia coli, UniProt P0A6F5). In words: Isothermal Titration Calorimetry of suramin binding to GroEL. The note with it: ITC, average of triplicate analyses.
Experiment [4] deals with T3, E. coli GroEL/ES chaperonin system. Description: High-throughput screens of LOPAC and MicroSource Spectrum libraries. Format: biochemical. The note with it: both GroEL/ES-dMDH and GroEL/ES-dRho screens, single concentration.
The target is the same in experiment [5]. In words: biochemical. The source holds these as a separate data set.
Experiment [6] deals with human HSP60/10 chaperonin system (Homo sapiens, UniProt P10809). Description: HSP60/10-dMDH refolding assay. The experiment is classed as biochemical.
The next experiment deals with GroEL ATPase (Escherichia coli, UniProt P0A6F5). Description: biochemical.
Where [7] appears, read: Biochemical Assay IC50, GroEL/ES-mediated refolding of dMDH, dose-response.

E. coli GroEL, sequence (P0A6F5 2-548): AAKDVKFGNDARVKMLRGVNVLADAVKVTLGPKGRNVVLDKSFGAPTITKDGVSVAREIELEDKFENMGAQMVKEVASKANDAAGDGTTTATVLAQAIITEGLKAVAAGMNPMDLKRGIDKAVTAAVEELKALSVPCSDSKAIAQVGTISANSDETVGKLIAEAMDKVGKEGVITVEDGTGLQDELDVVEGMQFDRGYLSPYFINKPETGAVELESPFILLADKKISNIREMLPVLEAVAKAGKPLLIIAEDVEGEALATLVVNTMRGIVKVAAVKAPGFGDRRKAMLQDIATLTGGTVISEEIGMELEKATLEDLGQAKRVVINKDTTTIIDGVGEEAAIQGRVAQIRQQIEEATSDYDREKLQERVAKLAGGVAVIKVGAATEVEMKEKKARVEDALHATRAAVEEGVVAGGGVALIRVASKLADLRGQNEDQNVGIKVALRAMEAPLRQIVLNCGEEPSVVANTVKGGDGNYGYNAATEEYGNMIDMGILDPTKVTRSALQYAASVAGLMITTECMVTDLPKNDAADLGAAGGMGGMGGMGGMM
T3 sequence (P0A6F5 2-548): as above
GroEL ATPase, sequence (P0A6F5 2-548): as above
human HSP60/10 chaperonin system, sequence (P10809 27-573): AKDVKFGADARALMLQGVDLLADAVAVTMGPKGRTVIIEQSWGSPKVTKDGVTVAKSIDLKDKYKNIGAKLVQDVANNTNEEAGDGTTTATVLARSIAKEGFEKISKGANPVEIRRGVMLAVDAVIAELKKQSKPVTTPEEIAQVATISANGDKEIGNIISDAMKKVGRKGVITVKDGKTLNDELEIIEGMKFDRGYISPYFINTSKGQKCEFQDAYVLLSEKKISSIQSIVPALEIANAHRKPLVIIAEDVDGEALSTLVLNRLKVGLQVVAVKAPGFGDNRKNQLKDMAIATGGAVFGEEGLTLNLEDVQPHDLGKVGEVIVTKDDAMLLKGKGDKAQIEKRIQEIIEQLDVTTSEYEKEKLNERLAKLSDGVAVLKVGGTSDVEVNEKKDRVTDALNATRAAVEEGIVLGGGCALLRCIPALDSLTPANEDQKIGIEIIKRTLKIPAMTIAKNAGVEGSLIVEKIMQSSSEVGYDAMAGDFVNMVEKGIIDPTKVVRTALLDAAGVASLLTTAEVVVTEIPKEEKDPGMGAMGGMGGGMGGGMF

With `Cc1ccc(C(=O)Nc2ccc(S(=O)(=O)O)c3cc(S(=O)(=O)O)cc(S(=O)(=O)O)c23)cc1NC(=O)c1cccc(NC(=O)Nc2cccc(C(=O)Nc3cc(C(=O)Nc4ccc(S(=O)(=O)O)c5cc(S(=O)(=O)O)cc(S(=O)(=O)O)c45)ccc3C)c2)c1` [Compound 28, Suramin], the half-maximal inhibitory concentration (IC50) in experiment [1] is > 100 µM. The concentration for half-maximal inhibition (IC50) in experiment [2] is > 63 µM. The compound also registered a concentration for half-maximal inhibition (IC50) in experiment [3] (Assay IC50, GroEL/ES-dMDH Refolding, Table 1) of 8.1 µM. In experiment [3] (setting [7]), the concentration for half-maximal inhibition (IC50) is 8.1 µM. This compound also yielded a half-inhibitory concentration (IC50) in experiment [3] (IC50 values for inhibiting GroEL/ES refolding functions, approximate, dMDH and dRho refolding assays together) of 10 to 15 µM. Besides, at E. coli GroEL, binding was put at a Kd of 21 µM, the “Log(Kd/μM)” value stood at 1.31 ± 0.30, the TΔS is given as 4.15 ± 0.72 kcal/mol and the ΔG was -6.22 ± 0.41 kcal/mol. Also, on E. coli GroEL, the ΔH is -2.07 ± 0.36 kcal/mol and the ΔS was 0.014 ± 0.002 kcal/mol·K. Further, the “Stoichiometry n, Molecule : GroEL oligomer” value at E. coli GroEL (per GroEL tetradecamer, listed as Suramin (28)) is 9.4 ± 0.6. Also, on E. coli GroEL (single-site binding model), the “Stoichiometry n, Molecule : GroEL monomer” value is listed as 0.67 ± 0.05. Besides, the “inhibition cutoff in primary and secondary high-throughput screens” value in experiment [4] is on record as “did not meet the 50% inhibition cutoff”.

On to `CC(C)n1c(/C=C/C(O)CC(O)CC(=O)O)c(-c2ccc(F)cc2)c2ccccc21` (centres unmarked) [Compound 60, Fluvastatin sodium], for which the half-maximal inhibitory concentration (IC50) is > 100 µM in experiment [1]; > 63 µM in experiment [2]; > 250 µM in experiment [5]; > 100 µM in experiment [3] (setting [7]); > 100 µM in experiment [6]; > 250 µM against GroEL ATPase.
